We go through 19 molecules from patent publication US20250034150A1, “BTK INHIBITORS” (BIOGEN MA INC., priority 2021, published 2025).

Each structure is given as a SMILES string. Like-named read-outs stand apart in the source and are kept apart here.

Assay [1] deals with CD69 expression on CD19+ B cells in human whole blood. Nature of the assay: In Vitro whole blood CD69 Assay. The conditions noted are these: B-cell, read-out: In Vitro HWB CD69 Assay IC50 Score. It counts as cell-based. Here is the method:
Human heparinized venous blood from health donors was aliquoted into 96-well plate and “spiked” with serial dilutions of formula I compounds in DMSO or with DMSO without drug. The final concentration of DMSO in all wells was 0.1%. The plate was incubated at 37° C. for 30 min. Drug-containing samples were stimulated with 0.1 μg/mL mouse anti-human IgD-dextran (1A62) or 20 μg/mL polyclonal rabbit F(ab′)2 anti-human IgD. Phosphate-buffered saline (PBS) was added to the negative control unstimulated sample and the plates were incubated overnight (18 to 22 hours) at 37° C. Cells were stained with fluorochrome-conjugated anti-CD19 and anti-CD69 antibodies. Lyse/fix solution was used to remove red blood cells by hypotonic lysis and to fix the remaining cells, which were then analyzed by flow cytometry. CD19+ B cells were gated and analyzed for CD69 expression.

Another assay addresses T1, BTK (Homo sapiens, UniProt Q06187).
T1 construct: purchased Upstate 14-552
Nature of the assay: In Vitro BTK Kinase Assay: Btk-PolyGAT-LS Assay. It counts as biochemical. The conditions noted are these: active BTK enzyme 0.25 nM, polyGAT 100 nM, 30 minutes, TRF readout; read-out: In Vitro BTK Kinase Assay IC50 Score. A digest of the protocol:
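IC50 values came from a four-parameter fit, with DMSO controls as 100% activity and EDTA controls as 0%. The signal was TR-FRET from a Tb-PY20 antibody binding fluorescein-polyGAT (100 nM) phosphorylated by 0.25 nM BTK. Kinase reactions used 10 μM ATP, a 4-fold compound titration, and ran 30 minutes before EDTA stop.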

[2] abbreviates: human heparinized whole blood, anti-human IgD stimulation overnight, CD19+ B cells, flow cytometry.

T1 sequence (Q06187 whole entry): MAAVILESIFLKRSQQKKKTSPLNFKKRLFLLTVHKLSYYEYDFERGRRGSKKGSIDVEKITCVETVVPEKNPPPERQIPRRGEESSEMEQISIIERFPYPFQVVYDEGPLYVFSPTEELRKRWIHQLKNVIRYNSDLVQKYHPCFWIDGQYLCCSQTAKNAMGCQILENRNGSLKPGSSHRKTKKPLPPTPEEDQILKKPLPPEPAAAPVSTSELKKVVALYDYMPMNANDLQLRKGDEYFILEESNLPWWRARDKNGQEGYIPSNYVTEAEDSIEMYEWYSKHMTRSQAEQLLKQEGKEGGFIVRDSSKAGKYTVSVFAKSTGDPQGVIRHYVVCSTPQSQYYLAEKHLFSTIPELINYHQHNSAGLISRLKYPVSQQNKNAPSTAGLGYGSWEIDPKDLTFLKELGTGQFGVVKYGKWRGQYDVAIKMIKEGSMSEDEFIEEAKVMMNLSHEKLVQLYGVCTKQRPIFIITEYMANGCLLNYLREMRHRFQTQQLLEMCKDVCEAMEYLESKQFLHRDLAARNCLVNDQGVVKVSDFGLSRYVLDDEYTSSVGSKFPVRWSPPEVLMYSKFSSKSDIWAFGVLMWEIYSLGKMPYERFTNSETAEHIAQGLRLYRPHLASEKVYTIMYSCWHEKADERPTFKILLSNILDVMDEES

`Cn1cc(-c2cn3ncnc3c(N3CCC(CNC(=O)c4noc(C(C)(C)C)n4)CC3)n2)cn1` [Example 73, 5-(tert-butyl)-N-((1-(6-(1-methyl-1H-pyrazol-4-yl)-[1,2,4]triazolo[1,5-a]pyrazin-8-yl)piperidin-4-yl)methyl)-1,2,4-oxadiazole-3-carboxamide]: the half-maximal inhibitory concentration (IC50) fell in the range of 1 to 10 µM in assay [1] (setting [2]) and 0.001 to 0.01 µM at BTK.

For the molecule `Cn1cc(-c2cn3nccc3c(-c3ccc(CN4CCN(CC(C)(C)C)CC4=O)cc3)n2)cn1` [Example 33, 1-(4-(6-(1-methyl-1H-pyrazol-4-yl)pyrazolo[1,5-a]pyrazin-4-yl)benzyl)-4-neopentylpiperazin-2-one], the 50% inhibitory concentration (IC50) in assay [1] (setting [2]) is 1 to 10 µM; on BTK, 0.001 to 0.01 µM.

With `Cn1cc(-c2cn3nccc3c(-c3ccc(CNC(=O)c4cnn(C(C)(C)C)c4)c(F)c3)n2)cn1` [Example 10, 1-(tert-butyl)-N-(2-fluoro-4-(6-(1-methyl-1H-pyrazol-4-yl)pyrazolo[1,5-a]pyrazin-4-yl)benzyl)-1H-pyrazole-4-carboxamide], the values for the half-maximal inhibitory concentration (IC50) (in assay [1] (setting [2]); at BTK) were less than 1 µM and less than 0.001 µM, respectively.

On to `Cn1cc(-c2cn3nccc3c(-c3ccc(CNC(=O)c4ccn(C(C)(C)C)n4)cc3)n2)cn1` [Example 1, 1-(tert-butyl)-N-(4-(6-(1-methyl-1H-pyrazol-4-yl)pyrazolo[1,5-a]pyrazin-4-yl)benzyl)-1H-pyrazole-3-carboxamide], for which the IC50 is 1 to 10 µM in assay [1] (setting [2]) and 0.01 to 1 µM on BTK.

In the case of `Cn1cc(-c2cn3nccc3c(-c3ccc(CNC(=O)c4cnn(C(C)(C)C)n4)cc3F)n2)cn1` [Example 113, 2-(tert-butyl)-N-(3-fluoro-4-(6-(1-methyl-1H-pyrazol-4-yl)pyrazolo[1,5-a]pyrazin-4-yl)benzyl)-2H-1,2,3-triazole-4-carboxamide], the IC50 is 1 to 10 µM in assay [1] (setting [2]) and 0.001 to 0.01 µM on BTK.

On to `Cn1cc(-c2cn3nccc3c(-c3ccc(CNC(=O)c4ccn(C(C)(C)C)n4)c(F)c3F)n2)cn1` [Example 91, 1-(tert-butyl)-N-(2,3-difluoro-4-(6-(1-methyl-1H-pyrazol-4-yl)pyrazolo[1,5-a]pyrazin-4-yl)benzyl)-1H-pyrazole-3-carboxamide], for which the IC50 in assay [1] (setting [2]) lay within 1 to 10 µM; at BTK, 0.001 to 0.01 µM.

For the molecule `Cn1cc(-c2cn3nccc3c(-c3ccc(CNC(=O)c4nc(C(C)(C)C)no4)c(F)c3F)n2)cn1` [Example 89, 3-(tert-butyl)-N-(2,3-difluoro-4-(6-(1-methyl-1H-pyrazol-4-yl)pyrazolo[1,5-a]pyrazin-4-yl)benzyl)-1,2,4-oxadiazole-5-carboxamide], the IC50 in assay [1] (Homo sapiens) is less than 1 µM; on BTK, less than 0.001 µM.

As to `Cn1cc(-c2cn3nccc3c(N3CCC(CNC(=O)c4noc(C(C)(C)C)n4)C(F)(F)C3)n2)cn1` (centres unmarked) [Example 157, 5-(tert-butyl)-N-((3,3-difluoro-1-(6-(1-methyl-1H-pyrazol-4-yl)pyrazolo[1,5-a]pyrazin-4-yl)piperidin-4-yl)methyl)-1,2,4-oxadiazole-3-carboxamide], the IC50 was less than 1 µM in assay [1] (setting [2]) and less than 0.001 µM at BTK.

Take `Cn1cc(-c2cn3nccc3c(-c3ccc(CNC(=O)c4cnn(C(C)(C)C)n4)c(C(F)F)c3)n2)cn1` [Example 104, 2-(tert-butyl)-N-(2-(difluoromethyl)-4-(6-(1-methyl-1H-pyrazol-4-yl)pyrazolo[1,5-a]pyrazin-4-yl)benzyl)-2H-1,2,3-triazole-4-carboxamide]: the IC50 in assay [1] (setting [2]) is 1 to 10 µM; at BTK, less than 0.001 µM.

With `Cc1cc(-c2nc(-c3cnn(C)c3)cc3nccn23)ccc1CN1Cc2nc(C(C)(C)C)sc2C1=O` [Example 38, 2-(tert-butyl)-5-(2-methyl-4-(7-(1-methyl-1H-pyrazol-4-yl)imidazo[1,2-c]pyrimidin-5-yl)benzyl)-4,5-dihydro-6H-pyrrolo[3,4-d]thiazol-6-one], the IC50 in assay [1] (setting [2]) was 1 to 10 µM; on BTK, less than 0.001 µM.

For the molecule `Cn1cc(-c2cn3nccc3c(-c3cc(F)c(CNC(=O)c4cn(C(C)(C)C)nn4)cc3F)n2)cn1` [Example 98, 1-(tert-butyl)-N-(2,5-difluoro-4-(6-(1-methyl-1H-pyrazol-4-yl)pyrazolo[1,5-a]pyrazin-4-yl)benzyl)-1H-1,2,3-triazole-4-carboxamide], the figures for the 50% inhibitory concentration (IC50) (in assay [1] (setting [2]); at BTK) were 1 to 10 µM and 0.001 to 0.01 µM, respectively.

Consider `Cn1cc(-c2cn3nccc3c(-c3ccc(CNC(=O)c4coc(C(C)(C)C)n4)cc3F)n2)cn1` [Example 109], for which the 50% inhibitory concentration (IC50) in assay [1] (setting [2]) fell in the range of 1 to 10 µM; at BTK, 0.001 to 0.01 µM.

As to `Cc1cc(-c2nc(-c3cnn(C)c3)cn3nccc23)ccc1CNC(=O)c1nnc(C(C)(C)C)o1` [Example 14, 5-(tert-butyl)-N-(2-methyl-4-(6-(1-methyl-1H-pyrazol-4-yl)pyrazolo[1,5-a]pyrazin-4-yl)benzyl)-1,3,4-oxadiazole-2-carboxamide], the values for the half-inhibitory concentration (IC50) (in assay [1] (Homo sapiens); at BTK) were less than 1 µM and less than 0.001 µM, respectively.

`Cn1cc(-c2cn3nccc3c(-c3ccc(CNC(=O)c4noc(C(C)(C)C)n4)cc3F)n2)cn1` [Example 83, 5-(tert-butyl)-N-(3-fluoro-4-(6-(1-methyl-1H-pyrazol-4-yl)pyrazolo[1,5-a]pyrazin-4-yl)benzyl)-1,2,4-oxadiazole-3-carboxamide]: the figures for the IC50 (in assay [1] (setting [2]); at BTK) were less than 1 µM and 0.001 to 0.01 µM, respectively.

For `Cn1cc(-c2cn3nccc3c(-c3ccc(CNC(=O)c4coc(C(C)(C)C)n4)c(F)c3)n2)cn1` [Example 12, 2-(tert-butyl)-N-(2-fluoro-4-(6-(1-methyl-1H-pyrazol-4-yl)pyrazolo[1,5-a]pyrazin-4-yl)benzyl)oxazole-4-carboxamide], the IC50 is less than 1 µM in assay [1] (setting [2]) and less than 0.001 µM at BTK.

Take `Cn1cc(-c2cn3nccc3c(N3CCC(C)(CNC(=O)c4noc(C5(C)CC5)n4)CC3)n2)cn1` [Example 46, N-((4-methyl-1-(6-(1-methyl-1H-pyrazol-4-yl)pyrazolo[1,5-a]pyrazin-4-yl)piperidin-4-yl)methyl)-5-(1-methylcyclopropyl)-1,2,4-oxadiazole-3-carboxamide]: the IC50 in assay [1] (setting [2]) was in the range of 1 to 10 µM; at BTK, 0.01 to 1 µM.

Turning to `Cn1cc(-c2cn3nccc3c(-c3cc(F)c(CNC(=O)c4noc(C(C)(C)C)n4)cc3F)n2)cn1` [Example 84, 5-(tert-butyl)-N-(2,5-difluoro-4-(6-(1-methyl-1H-pyrazol-4-yl)pyrazolo[1,5-a]pyrazin-4-yl)benzyl)-1,2,4-oxadiazole-3-carboxamide], the IC50 was less than 1 µM in assay [1] (setting [2]) and less than 0.001 µM on BTK.

As to `Cn1cc(-c2cn3nccc3c(-c3ccc(CNC(=O)c4noc(C(C)(C)CF)n4)cc3)n2)cn1` [Example 22, 5-(1-fluoro-2-methylpropan-2-yl)-N-(4-(6-(1-methyl-1H-pyrazol-4-yl)pyrazolo[1,5-a]pyrazin-4-yl)benzyl)-1,2,4-oxadiazole-3-carboxamide], the IC50 was less than 1 µM in assay [1] (setting [2]) and less than 0.001 µM on BTK.

With `Cn1cc(-c2cn3nccc3c(-c3ccc(CNC(=O)c4nc(C(C)(C)C)no4)cc3)n2)cn1` [Example 19, 3-(tert-butyl)-N-(4-(6-(1-methyl-1H-pyrazol-4-yl)pyrazolo[1,5-a]pyrazin-4-yl)benzyl)-1,2,4-oxadiazole-5-carboxamide], the results for the 50% inhibitory concentration (IC50) (in assay [1] (setting [2]); on BTK) were less than 1 µM and less than 0.001 µM, respectively.
